# Source: patent publication US20050043262A1, “Novel specific inhibitor of the cyclin kinase inhibitor p21Waf1/Cip1 and methods of using the inhibitor” (priority 2000, published 2005)
# What was measured:
# cyclinD/cdk4 = test: Cyclin D1 immunoprecipitation / cdk4 immunoblot in A431 cells; format: cell-based, human; conditions: PDGF-BB 30 ng/ml
# Text: (§1) Cyclin/cdk interactions occur after growth factor stimulation and serve to integrate such responses with the CKIs and transmit them to the Rb/E2F systems, which leads to mitogenic signal transmission. The cyclin D1/cdk 4 interaction occurs early after growth factor stimulation (reviewed in (Arellano and Moreno, 1997 Int. J. Biochem. Cell Biol., 29, p. 559-573)), while the cyclinE/cdk2 interaction occurs late in G1 and is thought to have a role in triggering the actual onset of DNA replication after the cells have passed the restriction point (reviewed in (Sherr and Roberts, 1995: Genes Dev., 9, p. 1149-1163)). A431 cells were transfected with p21^Waf1/Cip1 antisense (SEQ. ID NO.:1) or sense (SEQ. ID NO.:2) oligodeoxynucleotide, allowed to grow overnight in serum-free media, and then stimulated for various times with PDGF-BB. The cells were subsequently immunoprecipitated with either cyclinD1 or cyclinE and immunoblotted with cdk4 or cdk2, respectively. A lysate sample, showing the mobility of the immunoprecipitated cdks, confirmed the identity of the cdks. A431 cells were transfected with antisense (SEQ. ID NO.:1) or sense p21^Waf1/Cip1 (SEQ. ID NO.:2) oligonucleotides. […]
# cyclinE/cdk2 = test: Cyclin E immunoprecipitation / cdk2 immunoblot in A431 cells; format: cell-based, human; conditions: 10 min to 6 hours of PDGF exposure
# Text: as §1
# caspase-3 = test: Caspase-3 activation (cleavage product) by Western blot in VSM cells; format: cell-based, rat
# Description: FIGS. 19A and B depict how Caspase-3 is activated by antisense oligonucleotide to p21 but not early after radiation or Adriamycin, as described in Example III, infra. Confluent VSM cells were transfected with oligonucleotide in the concentration indicated, left in serum-containing media overnight, and exposed to (A) ionizing radiation (12 Gy) or (B) Adriamycin where indicated. 4 hours later, activation of caspase-3 was assessed by Western blotting. The arrowhead indicates the cleavage product of caspase-3 signifying its processing as an early step in apoptosis. Wortmannin (wort) is a positive control for apoptosis. […] The experiment shown is representative of two separate experiments.
# Western blots: Cells were grown to confluence in 6 cm culture dishes and serum deprived. After transfection and or treatment with appropriate agonist, conditioned medium was removed and saved and the cells were washed with phosphate-buffered saline and lysed in lysis buffer. Both supernatant and cell lysate were normalized to the lysate protein concentrations and Western blotted as described (Weiss R H, et al. Am J Physiol 274:C1521-C1529, 1998).
# In order to determine whether the potentiation of ionizing radiation and Adriamycin induced DNA synthesis inhibition by p21 antisense oligonucleotides is accompanied by apoptosis, caspase-3 activation in response to ionizing radiation was examined. Caspase-3 is an effector caspase whose activation (leading to apoptosis) results in a 20 kD cleavage product which can be assessed by Western blotting (McCarthy N J, Evan G I. Curr Top Dev Biol 36:259-278, 1998). This process is an early event in a cascade of reactions which ultimately leads to apoptosis, as is evident by the fact that inactivation of caspase-3 dramatically reduces apoptosis in several cell lines (Woo M, et al. Genes Dev 12:806-819, 1998).
# VSM cells were transfected with antisense or control oligonucleotides overnight and then stimulated with ionizing radiation.
# VSM cells = test: Apoptosis by Hoechst 33258 staining in VSM cells; format: cell-based, rat; conditions: 24 hours after transfection
# Description: FIG. 20A-D show how the antisense oligonucleotide to p21 induces VSM cell apoptosis, as described in Example III, infra. VSM cells were grown on glass cover slips and transfected with (A,B) random sequence control oligonucleotide to p21 or (C,D) antisense oligonucleotide. 24 hours later, the cells were fixed and stained in situ with Hoechst 33258. Representative microscopic fields were photographed under (A,C) visual or (B,D) UV light at 40×.
# Apoptosis assays: Cells were grown on collagen-coated coverslips, and transfected as stated above. 16-24 hours after transfection, cells were exposed to 12 Gy dose of γ-irradiation or 0.5 μM wortmannin. 24 hours later, cells were fixed in 3.7% formaldehyde (diluted in PBS) for 10 minutes. The cells were rinsed with cold PBS and permeabilized using 0.1% Triton X-100 (diluted in deionized water) for 5 minutes. Rinsed again with PBS, the cells on the coverslips were submerged in Hoechst Staining solution (3.0 μl in 37.5 ml deionized water) for 5 minutes. Cells were given a final three rinses with cold PBS before being mounted in polyvinyl alcohol mounting medium. Cell nuclei were visualized using a ZEISS WL Microscope and photographed under 40×.
# As another measure of apoptosis, transfected cells fixed and stained with Hoechst 33258 were examined.
# MAPK = MAPK level (immunoblot) in ODN-transfected breast cancer cells; format: cell-based, human; conditions: ODN-transfected cells compared with controls
# Description: Due to the high levels of p21 in these two human breast cancer cell lines, it was reasoned that, in a manner similar to their effect in VSM cells (Weiss, R. H., Joo, A., and Randour, C., J. Biol. Chem., 275: 10285-10290, 2000), antisense ODNs to p21 may result in increased apoptosis and/or cell cycle arrest. […] T47D and MCF7 cells were lipofected with either antisense p21 ODN (200 or 400 nM), the control ODN at the same concentrations, or lipofectin alone (no DNA). MCF7 and T47D cells were grown to confluence, serum starved for 24 hours, and lipofected with antisense p21 or control ODN or lipofectin only. cont refers to nontransfected cells. The cells were subsequently serum stimulated for another 24 hours. A and B, the cells were lysed, and equal protein quantities (20 μg) were electrophoresed and immunoblotted with p21 antibody. The same lysate was immunoblotted with MAPK antibody as a loading control. Density of p21 and MAPK bands was determined and reported as a ratio. C, the cells were transfected as described in A, fixed, subjected to immunohistochemistry with p21 antibody as described in “Immunohistochemistry” in Example VI, and examined under visible light at X400. Control cells (FIG. 30, cont) were not transfected. […] There was no effect of lipofectin alone when compared with no transfection (control).
Substance,cyclinD/cdk4 association (cyclinD/cdk4),cyclinE/cdk2 association (cyclinE/cdk2),caspase-3 activation (caspase-3; Adriamycin experiment (FIG. 19b)),"caspase-3 activation (caspase-3; alone or after ionizing radiation 12 Gy, 4 hours)",apoptotic changes (Hoechst 33258) (VSM cells),MAPK levels (MAPK)
5′-GACATCACCAGGATCGGACAT-3′,no change,no effect,caspase-3 activation was observed,impressive increase,extensive apoptotic changes,–
"5′-ATC-CCC-AGC-CGG-TTC-TGA-CAT-3′ (antisense ATCCCCAGCCGGTTCTGACAT; listed as DNA, chemistry not fully specified) [antisense p21 ODN]",–,–,–,–,–,lack of modulation
